Measurements taken from patent US20220226343A1, “3-AMINO-4-[4-[4 (DIMETHYLCARBAMOYL) PHENYL]-1,4-DIAZEPAN-1-YL]THIENO[2,3-B]PYRIDINE-2-CARBOXAMIDE FOR USE IN CANCER THERAPY AND FORMULATIONS COMPRISING THE SAME” (University of South Carolina, priority 2019, published 2022).

Assays:
[1] = tested on: CDK8/19; experiment: NFκB reporter assay in parental 293 reporter cells; type: cell-based; conditions: NFκB Activity Assay as described in Example 1; read-out: Inhibition Potency HEK293-NFkB-Luc Assay
Excerpt: We have used a cell-based assay to measure the inhibition of CDK8/19 activity by thienopyridine derivatives. This assay, based on the role of CDK8/19 in NFκB-driven transcription (Chen, 2017), measures the effects of CDK8/19 on the expression of firefly luciferase reporter from a NFκB-dependent promoter in 293 cells. Lentiviral vector pHAGE-NFKB-TA-LUC-UBC-dTomato-W (Addgene #49335) was introduced into 293 cells and a clonal cell line showing the strongest induction of luciferase expression upon TNFα treatment was established and used as the reporter cell line. As a control for CDK8/19 dependence of NFκB inhibition, we have also introduced the same reporter construct into 293 cells with CRISPR/CAS9 knockout of both CDK8 and CDK19.
FIG. 2C and Table 1 compares the IC50 values for different thienopyridines measured in the NFκB reporter assay in parental 293-derived reporter cell line to the cell-based activity values measured for the same compounds by Saito (2013) based on their effect on alkaline phosphatase (ALPase), an indicator of differentiation to osteoblasts in the mouse bone marrow stromal cell line ST2. The latter effects are expressed as EC200, a concentration that enhances ALPase activity to 200% of control.

[2] = molecular target: T1, CDC2L5 (Homo sapiens, UniProt Q14004); experiment: KINOMEscan scanMAX; type: binding; conditions: CDC2L5, 2000 nM
T1 construct: purchased DiscoverX (KINOMEscan scanMAX service)
Excerpt: (§1) Nat. Biotechnol. 23, 329-336 (2005).
(§2) Percent Control (% Ctrl).
(§3) % Ctrl=100×(TS−CPOS)/(CNEG−CPOS) (eqn 1)

[3] = molecular target: T2, PFCDPK1(P. falciparum) (Plasmodium falciparum, UniProt P62344); experiment: KINOMEscan scanMAX; type: binding; conditions: 2000 nM
T2 construct: DNA label (qPCR read-out); purchased DiscoveRx (KINOMEscan scanMAX)
Excerpt: as §1, §2, §3

[4] = molecular target: T3, PFPK5(P. falciparum) (Plasmodium falciparum, UniProt P61075); experiment: KINOMEscan scanMAX; type: binding; conditions: 2000 nM
T3 construct: purchased KINOMEscan (DiscoveRx) scanMAX panel
Excerpt: as §1, §2, §3

[5] = tested on: FLT3(ITD, D835V); experiment: KINOMEscan scanMAX; type: binding; conditions: 2000 nM
Excerpt: as §1, §2, §3

[6] = molecular target: T4, PKNB(M. tuberculosis) (Mycobacterium tuberculosis, UniProt P9WI81); experiment: KINOMEscan scanMAX; type: binding; conditions: 2000 nM
T4 construct: purchased DiscoveRx (KINOMEscan scanMAX panel)
Excerpt: as §1, §2, §3

[7] = tested on: FLT3(ITD); experiment: KINOMEscan scanMAX; type: binding; conditions: 2000 nM
Excerpt: as §1, §2, §3

[8] = tested on: FLT3(ITD, F691L); experiment: KINOMEscan scanMAX; type: binding; conditions: 2000 nM
Excerpt: as §1, §2, §3

[9] = molecular target: T5, PRP4 (Homo sapiens, UniProt Q13523); experiment: KINOMEscan scanMAX; type: binding; conditions: PRP4, 2000 nM
T5 construct: DNA label (qPCR read-out); purchased DiscoverX (KINOMEscan)
Excerpt: as §1, §2, §3

[10] = in vivo; conditions: female, CD-1, mouse, serum, po, 30 mg/kg
[11] = Oral PK of 15u and 15u_D6, female CD-1 mice; conditions: 30 mg/kg, AUC within the first eight hours
[12] = tested on: 4T1 murine TNBC lung metastasis; experiment: 4T1 breast cancer metastasis survival after primary tumor removal; type: in vivo, mouse; conditions: Senexin B medicated food (350 ppm) plus one oral dose 50 mg/kg
Description: 4T1 is a murine triple-negative breast cancer (TNBC) cell line, which is highly metastatic to the lungs. […] Parental and CDK8-knockdown 4T1 cells (n=10) were injected orthotopically in the mammary fat pad and the primary tumors were removed 17 days later. Following surgery, all the mice eventually died with lung metastases. […] However, the loss of CDK8 was associated with a strong increase in the survival of mice (FIG. 10C). […]

[13] = tested on: MYC-CAP-CR cells; experiment: Long-term clonogenic assay, MYC-CaP-CR; type: cell-based, murine; conditions: 1 μM Senexin B, 1 μM 15u, 5 μM enzalutamide
Excerpt: (§4) MYC-CaP-CR cells (Ellis L. et al., 2012. Prostate 72(6):587-591) were selected for castration resistance from genetically engineered MYC-CaP cells that express MYC from an AR-responsive promoter (Watson P A, et al., 2005. Cancer Res 65(24):11565-11571). Castration resistance in these cells is associated with the overexpression of full-length AR rather than an AR variant, such as AR-V7 in 22rv1 (Olson B M, et al., 2017. Cancer immunology research 5(12):1074-1085).

[14] = tested on: PSA expression in CRPC cell line C4-2; experiment: PSA expression in cell culture supernatant of C4-2 cells; type: cell-based; conditions: C4-2 culture supernatant, 4-day treatment, FBS-supplemented regular media
Excerpt: CDK8/19 inhibition decreases the expression of certain androgen-receptor (AR) inducible genes including PSA, the most common marker of prostate cancer, and the growth of castration-refractory prostate cancers (CRPC).

[15] = tested on: MYC-CAP-CR cells; experiment: Short-term cell proliferation assay, MYC-CAP-CR; type: cell-based, murine; conditions: androgen-containing media
Excerpt: as §4

[16] = tested on: CRPC cell line 22rv1 xenograft; conditions: Senexin B 133 mg/kg once a day or 66 mg/kg twice a day (FIG. 8D)
[17] = tested on: MYC-CaP-CR tumors; experiment: MYC-CaP-CR tumors subcutaneous in intact FVB male mice; type: in vivo, mouse
Excerpt: as §4

T2 sequence (P62344 whole entry): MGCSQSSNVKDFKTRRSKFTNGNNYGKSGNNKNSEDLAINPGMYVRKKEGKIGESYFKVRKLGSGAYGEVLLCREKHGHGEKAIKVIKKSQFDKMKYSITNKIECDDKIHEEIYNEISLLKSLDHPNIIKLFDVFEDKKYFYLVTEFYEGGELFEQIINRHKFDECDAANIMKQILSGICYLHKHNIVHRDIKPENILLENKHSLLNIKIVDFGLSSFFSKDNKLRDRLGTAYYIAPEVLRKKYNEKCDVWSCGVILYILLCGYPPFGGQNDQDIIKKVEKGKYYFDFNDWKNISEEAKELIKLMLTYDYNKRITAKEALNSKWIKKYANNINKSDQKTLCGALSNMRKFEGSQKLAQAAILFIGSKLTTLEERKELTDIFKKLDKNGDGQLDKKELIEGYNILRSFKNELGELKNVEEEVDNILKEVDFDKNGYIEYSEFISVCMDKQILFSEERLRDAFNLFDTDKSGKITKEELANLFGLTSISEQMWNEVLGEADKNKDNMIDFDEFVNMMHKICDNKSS
T5 sequence (Q13523 whole entry): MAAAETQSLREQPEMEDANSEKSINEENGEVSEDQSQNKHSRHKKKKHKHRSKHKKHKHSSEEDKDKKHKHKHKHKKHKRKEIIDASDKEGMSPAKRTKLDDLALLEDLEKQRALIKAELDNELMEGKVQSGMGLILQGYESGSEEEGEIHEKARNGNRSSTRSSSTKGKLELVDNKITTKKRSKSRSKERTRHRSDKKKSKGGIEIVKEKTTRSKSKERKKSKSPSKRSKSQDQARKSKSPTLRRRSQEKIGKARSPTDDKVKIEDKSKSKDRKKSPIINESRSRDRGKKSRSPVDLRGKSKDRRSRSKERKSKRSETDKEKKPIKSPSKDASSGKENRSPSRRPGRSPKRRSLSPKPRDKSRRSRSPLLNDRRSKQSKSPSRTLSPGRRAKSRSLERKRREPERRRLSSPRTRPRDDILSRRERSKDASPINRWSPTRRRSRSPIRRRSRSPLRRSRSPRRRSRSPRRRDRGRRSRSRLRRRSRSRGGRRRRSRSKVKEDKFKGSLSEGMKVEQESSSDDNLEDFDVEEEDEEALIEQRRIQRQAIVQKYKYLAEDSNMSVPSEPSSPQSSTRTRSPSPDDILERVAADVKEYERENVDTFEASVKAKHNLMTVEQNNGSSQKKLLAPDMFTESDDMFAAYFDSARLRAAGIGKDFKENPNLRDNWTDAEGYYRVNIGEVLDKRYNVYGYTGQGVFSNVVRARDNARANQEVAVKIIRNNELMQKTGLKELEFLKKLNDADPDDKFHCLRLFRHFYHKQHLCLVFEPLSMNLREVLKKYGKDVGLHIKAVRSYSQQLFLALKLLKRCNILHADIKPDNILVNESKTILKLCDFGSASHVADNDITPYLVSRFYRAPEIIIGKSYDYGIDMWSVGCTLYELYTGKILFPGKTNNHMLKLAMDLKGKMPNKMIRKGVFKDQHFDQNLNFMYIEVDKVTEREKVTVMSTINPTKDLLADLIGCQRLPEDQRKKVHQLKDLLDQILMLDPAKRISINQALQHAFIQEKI
T4 sequence (P9WI81 whole entry): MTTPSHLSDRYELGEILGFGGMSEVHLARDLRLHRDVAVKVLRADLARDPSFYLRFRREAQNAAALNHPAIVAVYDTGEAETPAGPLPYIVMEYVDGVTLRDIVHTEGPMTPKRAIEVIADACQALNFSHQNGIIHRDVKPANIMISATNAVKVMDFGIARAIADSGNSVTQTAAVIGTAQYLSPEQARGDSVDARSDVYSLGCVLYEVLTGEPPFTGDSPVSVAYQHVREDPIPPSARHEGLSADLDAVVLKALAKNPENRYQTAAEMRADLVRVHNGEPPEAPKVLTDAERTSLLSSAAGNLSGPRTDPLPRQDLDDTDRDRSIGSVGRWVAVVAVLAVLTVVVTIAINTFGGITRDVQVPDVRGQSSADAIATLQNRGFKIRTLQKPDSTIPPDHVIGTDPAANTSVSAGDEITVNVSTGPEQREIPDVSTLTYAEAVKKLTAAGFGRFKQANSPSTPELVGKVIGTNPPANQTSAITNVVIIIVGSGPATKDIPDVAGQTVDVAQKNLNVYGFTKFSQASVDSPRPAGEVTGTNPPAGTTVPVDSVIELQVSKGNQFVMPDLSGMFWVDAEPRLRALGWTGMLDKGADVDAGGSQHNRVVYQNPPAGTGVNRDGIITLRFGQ
T1 sequence (Q14004 whole entry): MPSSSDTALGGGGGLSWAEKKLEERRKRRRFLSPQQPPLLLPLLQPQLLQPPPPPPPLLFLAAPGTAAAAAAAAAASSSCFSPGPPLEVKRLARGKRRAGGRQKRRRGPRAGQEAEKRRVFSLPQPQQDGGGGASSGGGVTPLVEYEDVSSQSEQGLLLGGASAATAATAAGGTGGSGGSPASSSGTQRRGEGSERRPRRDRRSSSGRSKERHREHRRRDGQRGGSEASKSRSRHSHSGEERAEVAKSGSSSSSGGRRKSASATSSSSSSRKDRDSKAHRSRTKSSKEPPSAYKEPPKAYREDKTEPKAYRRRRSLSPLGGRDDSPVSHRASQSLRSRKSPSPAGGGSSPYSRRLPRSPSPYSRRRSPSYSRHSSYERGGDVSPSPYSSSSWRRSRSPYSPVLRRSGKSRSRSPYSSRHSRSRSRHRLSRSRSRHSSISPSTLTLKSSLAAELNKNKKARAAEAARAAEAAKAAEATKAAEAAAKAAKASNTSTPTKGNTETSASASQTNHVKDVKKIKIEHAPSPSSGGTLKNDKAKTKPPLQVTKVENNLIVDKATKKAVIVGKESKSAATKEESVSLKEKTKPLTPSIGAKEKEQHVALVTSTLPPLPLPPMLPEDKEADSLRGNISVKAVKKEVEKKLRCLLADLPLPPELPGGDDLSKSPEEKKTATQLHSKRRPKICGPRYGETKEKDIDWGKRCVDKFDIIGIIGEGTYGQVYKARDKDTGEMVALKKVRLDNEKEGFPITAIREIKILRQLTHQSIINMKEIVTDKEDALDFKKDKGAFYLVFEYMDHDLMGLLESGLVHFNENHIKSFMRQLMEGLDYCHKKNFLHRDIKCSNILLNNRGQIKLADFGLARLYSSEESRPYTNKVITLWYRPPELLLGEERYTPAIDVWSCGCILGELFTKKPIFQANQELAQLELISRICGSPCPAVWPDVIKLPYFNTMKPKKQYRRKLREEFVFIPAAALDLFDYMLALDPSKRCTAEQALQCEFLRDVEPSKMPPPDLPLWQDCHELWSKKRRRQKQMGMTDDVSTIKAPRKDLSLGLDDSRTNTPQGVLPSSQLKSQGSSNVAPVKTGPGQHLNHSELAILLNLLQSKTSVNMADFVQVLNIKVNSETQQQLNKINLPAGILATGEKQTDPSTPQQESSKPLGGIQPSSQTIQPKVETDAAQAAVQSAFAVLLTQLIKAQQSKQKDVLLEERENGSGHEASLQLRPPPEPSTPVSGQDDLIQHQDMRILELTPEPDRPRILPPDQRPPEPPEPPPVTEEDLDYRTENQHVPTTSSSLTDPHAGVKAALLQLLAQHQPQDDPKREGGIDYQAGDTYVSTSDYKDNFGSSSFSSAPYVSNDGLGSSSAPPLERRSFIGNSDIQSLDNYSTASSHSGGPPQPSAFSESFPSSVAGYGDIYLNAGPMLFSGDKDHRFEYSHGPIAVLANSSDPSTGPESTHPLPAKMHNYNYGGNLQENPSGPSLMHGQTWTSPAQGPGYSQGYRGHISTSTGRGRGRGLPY
T3 sequence (P61075 whole entry): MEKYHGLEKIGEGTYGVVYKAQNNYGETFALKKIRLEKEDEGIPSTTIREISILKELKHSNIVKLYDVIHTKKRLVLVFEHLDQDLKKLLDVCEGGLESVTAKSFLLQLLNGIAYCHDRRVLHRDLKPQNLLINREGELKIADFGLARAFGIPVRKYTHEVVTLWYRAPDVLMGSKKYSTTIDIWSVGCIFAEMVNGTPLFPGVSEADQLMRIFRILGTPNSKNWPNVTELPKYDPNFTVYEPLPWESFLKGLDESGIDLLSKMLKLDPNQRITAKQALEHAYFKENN

SMILES	IC50 [1] [nM]	% Ctrl [2] [% Ctrl]	% Ctrl [3] [% Ctrl]	% Ctrl [4] [% Ctrl]	% Ctrl [5] [% Ctrl]	% Ctrl [6] [% Ctrl]	% Ctrl [7] [% Ctrl]	% Ctrl [8] [% Ctrl]	% Ctrl [9] [% Ctrl]	AUC(0-t) [10] [ng·h/mL]	PK of the D6 derivative compared with 15u [11]	survival after removal of the primary 4T1 tumor [12]	MYC-CaP-CR colony formation [13]	IC50 [14] [nM]	MYC-CAP-CR cell growth [15]	22rv1 growth in castrated mice [16]	MYC-CaP-CR tumor volume and weight [17]
[2H]C([2H])([2H])N(C(=O)c1ccc(N2CCCN(c3ccnc4sc(C(N)=O)c(N)c34)CC2)cc1)C([2H])([2H])[2H] [Compound 15u_D6, 3-amino-4-(4-(4-(bis(methyl-d3)carbamoyl)phenyl)-1,4-diazepan-1-yl)thieno[2,3-b]pyridine-2-carboxamide]	7.7	80	61	67	34	90	72	75	88	7400	slightly improved the PK						
CN1CCN(C(=O)c2ccc3cc(CCNc4ncnc5ccc(C#N)cc45)ccc3c2)CC1 [Senexin B, reference compound]												statistically significant but moderate increase in survival	decreased MYC-CaP-CR colony formation	255	little effect	significantly inhibited 22rv1 growth	
CNC(=O)c1ccc(N2C(=S)N(c3ccc(C#N)c(C(F)(F)F)c3)C(=O)C2(C)C)cc1F [enzalutamide]													decreased MYC-CaP-CR colony formation		paradoxically stimulated the growth		modest effect
